The text below walks through data of patent US8124129B2, “Crystalline form of the compound A-348441” (Karo Bio AB, priority 2005, dated 2012).

Common to all, as to type: physicochemical
Series [1] is described as follows: Stability study under accelerated conditions: moisture content by Karl Fischer analysis. As for the experimental part:
(§1) Three samples of Compound I were packaged separately in double polyethylene bags in a small cardboard box, which were stored in a stability chamber under accelerated conditions (40° C./75% […] Humidity). Sample 1 was 10 g of crystalline Form 1; Sample 2 was 2 g of amorphous product prepared as described in Example 1B above; and Sample 3 was 2 g of crystalline Form 2 made as described in Example 1A above.
(§2) Impurity profile, moisture content and crystalline form were measured on the samples, and then again approximately 3 months later for Sample 1, and 2 months later for Samples 2 and 3.
Karl Fischer analysis was used to measure moisture content.

Series [2] in a line: Stability study under accelerated conditions: impurity profile / overall purity by HPLC. The following applies: for overall purity (HPLC) after storage: 2 months; for overall purity (HPLC), initial: before storage. On the procedure: as §2
The impurity profile was measured by HPLC.

The nature of series [3]: Solubility (general statement).
Series [4] is described as follows: Stability study under accelerated conditions: crystalline form by differential scanning calorimetry. The following applies: 3 months, 40° C./75% Residual Humidity. On the procedure:
as §1, §2
In general terms: DSC measures the heat that a sample takes up or gives off during a temperature scan.

Where [5] appears, read: compared with crystalline form of Example 1S of WO 2004/000869 and amorphous form, general statement.
[6] abbreviates: 40° C./75% Residual Humidity, double polyethylene bags.

With `CC#C[C@]1(O)CC[C@H]2[C@@H]3CCC4=CC(=O)CCC4=C3[C@@H](c3ccc(N(C)CCO[C@H]4CC[C@@]5(C)[C@@H](C4)C[C@@H](O)[C@@H]4[C@@H]5C[C@H](O)[C@]5(C)[C@@H]([C@H](C)CCC(=O)O)CC[C@@H]45)cc3)C[C@@]21C` [Sample 1, (3β,5β,7α,12α)-7,12-dihydroxy-3-{2-[{4-[17β-hydroxy-3-oxo-17α-prop-1-ynylestra-4,9-dien-11β-yl]phenyl}(methyl)amino]ethoxy}cholan-24-oic acid], the “water uptake (Karl Fischer) after storage” value in series [1] (3 months, 40° C./75% Residual Humidity) is “little water uptake”. Moreover, the hygroscopicity entry in series [1] (setting [5]) is on record as “lower hygroscopicity”. For the same compound, the “change of overall purity (HPLC) after storage” value in series [2] (3 months, 40° C./75% Residual Humidity, double polyethylene bags) is “did not change”. Further, the “stability under accelerated conditions, overall conclusion” value in series [2] (compared with Compound I in other forms) is listed as “more stable”. The stability entry in series [2] (setting [5]) is on record as “improved stability”. Moreover, in series [3], the solubility result is recorded as “low solubility”. For the same compound, in series [4], the “change in crystalline form (DSC thermograms)” value is “no change in crystalline form”.
For the compound `CC#C[C@]1(O)CC[C@H]2[C@@H]3CCC4=CC(=O)CCC4=C3[C@@H](c3ccc(N(C)CCO[C@H]4CC[C@@]5(C)[C@@H](C4)C[C@@H](O)[C@@H]4[C@@H]5C[C@H](O)[C@]5(C)[C@@H]([C@H](C)CCC(=O)O)CC[C@@H]45)cc3)C[C@@]21C` [Sample 2, (3β,5β,7α,12α)-7,12-dihydroxy-3-{2-[{4-[17β-hydroxy-3-oxo-17α-prop-1-ynylestra-4,9-dien-11β-yl]phenyl}(methyl)amino]ethoxy}cholan-24-oic acid], the “water content (Karl Fischer) after storage” value in series [1] (2 months, 40° C./75% Residual Humidity) came out at 5%. Further, the “moisture content, initial” value in series [1] (before storage) was “anhydrous”. The “overall purity (HPLC) after storage” value in series [2] (setting [6]) amounted to 96.7%. Also, in series [2], the “overall purity (HPLC), initial” value is reported as 97.3%.
`CC#C[C@]1(O)CC[C@H]2[C@@H]3CCC4=CC(=O)CCC4=C3[C@@H](c3ccc(N(C)CCO[C@H]4CC[C@@]5(C)[C@@H](C4)C[C@@H](O)[C@@H]4[C@@H]5C[C@H](O)[C@]5(C)[C@@H]([C@H](C)CCC(=O)O)CC[C@@H]45)cc3)C[C@@]21C` [Sample 3, (3β,5β,7α,12α)-7,12-dihydroxy-3-{2-[{4-[17β-hydroxy-3-oxo-17α-prop-1-ynylestra-4,9-dien-11β-yl]phenyl}(methyl)amino]ethoxy}cholan-24-oic acid]: the “water uptake (Karl Fischer) after storage” value in series [1] (2 months, 40° C./75% Residual Humidity, relative to Samples 1 and 2) is given as “intermediate behaviour”. Besides, in series [2] (setting [6]), the “overall purity (HPLC) after storage” value is recorded as 90.7%. In addition, the “overall purity (HPLC), initial” value in series [2] was 93.2%.
